Results from patent US20110105509A1 (Wyeth, LLC, priority 2009, published 2011).
pIC50: −log10 of the molar value.

Biological target: T1, CRTH2 (Homo sapiens, UniProt Q9Y5Y4)
T1 construct: expressed in transfected cells; host or cells: CHO cells
T1 sequence (Q9Y5Y4 1-395): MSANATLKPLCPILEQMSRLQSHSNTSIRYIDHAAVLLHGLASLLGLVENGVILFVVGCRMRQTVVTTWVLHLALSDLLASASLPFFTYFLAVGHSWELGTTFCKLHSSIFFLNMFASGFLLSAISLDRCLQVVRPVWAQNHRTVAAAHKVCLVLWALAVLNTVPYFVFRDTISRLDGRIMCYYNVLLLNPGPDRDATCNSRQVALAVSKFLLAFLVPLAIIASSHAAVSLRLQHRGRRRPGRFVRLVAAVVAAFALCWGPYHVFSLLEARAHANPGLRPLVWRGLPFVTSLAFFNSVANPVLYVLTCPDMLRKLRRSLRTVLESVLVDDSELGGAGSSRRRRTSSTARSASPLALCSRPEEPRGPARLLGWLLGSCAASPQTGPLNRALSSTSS
Experiment: FRET based competitive immunoassay (cAMP) in CRTH2 expressing CHO cells
Type: cell-based
Settings: CRTH2 expressing CHO cells incubated with forskolin and PGD2; Eu3+ cryptate-labeled anti-cAMP and d2-labeled cAMP
Protocol: FRET Assay: To evaluate potency compounds were tested in a FRET based competitive immunoassay in which CRTH2 expressing CHO cells were incubated in the presence of forskolin and PGD2 along with Eu3+ cryptate-labeled anti-cAMP and d2-labeled cAMP.

Row | SMILES | pIC50
1 | Cc1c(Cc2ccc(=O)n(Cc3cccc(F)c3)c2)c2ccccc2n1CC(=O)O [Example 34, 2-(3-((1-(3-Fluorobenzyl)-6-oxo-1,6-dihydropyridin-3-yl)methyl)-2-methyl-1H-indol-1-yl)acetic acid] | 7.27
2 | Cc1c(-c2ccc(=O)n(CCOc3ccc(Cl)cc3)n2)c2cc(Cl)ccc2n1CC(=O)O [Example 140, 2-(5-chloro-3-(1-(2-(4-chlorophenoxy)ethyl)-6-oxo-1,6-dihydropyridazin-3-yl)-2-methyl-1H-indol-1-yl)acetic acid] | 7.80
